# Tested on: newborn piglets
# Experiment: Meconium aspiration model: newborn piglets given human meconium by deep intratracheal instillation, monitored 7 days
# Format: in vivo
# Conditions: 3 ml/kg of 20% human meconium intratracheal, daily oral dosage of 0.7 mg/kg started within one hour after birth, versus placebo
# Protocol: Immediately after birth, twelve newborn piglets are given 3 ml/kg of a 20% solution of human meconium by deep intratracheal instillation. Next, the piglets are randomly assigned to two groups of each six animals. Within one hour after birth, one group is treated with a daily oral dosage of 0.7 mg/kg estetrol whilst the control group is treated with placebo. During the next 7 days the condition of the piglets belonging to both groups are monitored. […] Example 1 was repeated, except that this time one group was treated with a daily oral dosage of 30 μg/kg estradiol instead of estetrol.
structure (smiles),measurement,value
C[C@]12CC[C@@H]3c4ccc(O)cc4CC[C@H]3[C@@H]1[C@@H](O)[C@@H](O)[C@@H]2O [estetrol],incidence of severe complications of MAS versus control group,substantially lower

# Reference: patent US8367647B2, “Treatment of meconium aspiration syndrome with estrogens” (Pantarhei Bioscience B.V., priority 2007, dated 2013)
